{"source": "patent US20060078890A1", "about": "“Methods for identifying parkinson's disease therapeutics” (priority 2004, published 2006)", "key": {"PC12-αSyn cells": {"test_system": "PC12-αSyn cells", "experiment": "MPP+ toxicity in α-synuclein overexpressing PC12 cells, cell death by LDH release", "format": "cell-based", "details": "for LDH release (cell death) induced by MPP+ toxicity; neuroprotective effect: PC12-αSyn cells pretreated for two hours prior to 1 mM MPP+ for 24 hours, increasing concentrations", "procedure": "A PC12 cell line was transfected to express wild type human α-synuclein using the Tet-Off system (Clontech Laboratories, Palo Alto, Calif.). α-Synuclein expression was suppressed using 1 μg/mL doxycycline (Clontech) in culture media before expression is required. α-Synuclein expressing PC12 cells (PC12-αSyn) were grown in Dulbecco's modified Eagle's medium (DMEM) (Invitrogen, Calsbad, Calif.) supplemented with 10% heat-inactivated horse serum, 5% heat-inactivated fetal calf serum (Hyclone, Logan, Utah), 4 mM L-glutamine, streptomycin, and penicillin G (Fisher, Pittsburgh, Pa.). Cells were maintained at 37° C., in 5% CO2 humid atmosphere.\nThe effects of various neuroprotective agents were examined in the PC12-αSyn cell line. To determine MPP^+ neurotoxicity in α-synuclein- and naïve PC12 cells, cell death was measured by LDH release assays.\n(§1) Cell death will be assessed by quantifying intra- and extracellular lactate dehydrogenase (LDH). The ratio between the amount of LDH released and the amount remaining in the cells produces a measure of cell death. [formula]\n(§2) A sample of the medium will be the extracellular LDH sample. Cells were washed with PBS and extracted in cell lysis buffer (50 mM Tris pH 8.0, 150 mM NaCl, 5 mM EDTA, 1% Triton X-100, 10 μg/ml Aprotinin, 25 μg /ml Leupeptin, 10 μg/ml Pepstatin, 1 mM PMSF; all protease inhibitors purchased from Sigma Chemicals, St. Louis, Mo.). The cell homogenate were centrifuged at 4° C. for 3 minutes at 14,000 rpm. The supernatant were taken for intracellular LDH sample. LDH activity will be quantified using an LDH assay kit (Roche, Indianapolis, Ind.)."}, "[1]": {"test_system": "TH-positive/GIRK2-positive dopaminergic neurons of primary VM culture", "experiment": "MPP+ toxicity in primary ventral mesencephalic (VM) culture, stereological count of TH-positive/GIRK2-positive neurons", "format": "cell-based, rat", "details": "for protective effect against MPP+ toxicity on GIRK2-positive/TH-positive neurons: pretreated 2 hours prior to 10 μM MPP+", "procedure": "VMDA cultures were obtained from E15 Sprague-Dawley rat (Charles River, Mass.) ventral mesencephalon (VM). Tissue was mechanically dissociated with a pasteur pipette. The cells were resuspended in DMEM containing heat-inhibited horse serum (10%), glucose (6.0 mg/ml), penicillin, streptomycin, and 2 mM glutamine (Gibco). Cell suspensions containing 4×10^5 cells were plated on a coverslip in a 24-well plate, precoated with a 1:500 diluted solution of polyornithine and fibronectin in 50 mM sodium borate (pH 7.4) overnight.\nThese cultures contained a mixed cell population having approximately 40% of TH-positive neurons at 5 days in vitro (DIV) with both A9- and A10-like dopaminergic neurons (FIG. 4A). […] The cultures were treated with MPP^+ at day 5 for 48 hours using concentrations ranging from 0.1 to 10 μM. Cells were fixed with paraformaldehyde for immunostaining of TH and GIRK2 48 hours after MPP^+ treatment.\nThe cultures were pretreated with the polypeptide factors 2 hours prior to 10 μM MPP^+ treatment.\nRoutine indirect immunofluorescence was performed on 4% paraformaldehyde fixed VM culture. The fixed cells were incubated in a blocking solution consisting of 10% normal donkey serum (Jackson Immuno Research Laboratories Inc, West Grove, Pa.) and 0.1% Triton X-100 (Sigma, St. Louis, Mo.) in 0.1M phosphate buffered saline (PBS) for 1 hour at room temperature before transferring to the primary antibody solution. The primary antibodies were diluted in blocking solution and the cells were incubated overnight at 4° C. The primary antibodies used were raised against tyrosine hydroxylase (sheep anti-TH, 1:300, Pel-Freez Biologicals, Rogers, Ak.) and GIRK2 (rabbit; 1:80, Alomone Laboratories, Jerusalem, Israel). The cells were rinsed three times in 0.1 M PBS for five minutes each before the application of the secondary antibody solution for one hour at room temperature. The secondary antibodies were diluted in 10% normal donkey serum in 0.1M PBS. The secondary antibodies were conjugated to spectrally distinct fluorescent dyes to facilitate color separation (Alexa Fluor 488 conjugated donkey anti-sheep and Alexa Fluor 594 conjugated donkey anti-rabbit, Molecular Probes, Eugene, Oreg.). After rinsing in triplicate for ten minutes each in 0.1 M PBS, the cells were counterstained with 0.0005% Hoechst 33342 (Molecular Probes) in 0.1M Tris buffered saline. The coverslips containing the fixed cells were then rinsed in 0.1M PBS followed by distilled water and mounted onto slides using an aqueous mountant (Gel/Mount, Biømeda Corp., Calif.). Control coverslips immunostained without primary antibody were used to assess specificity of the technique.\nDesign based stereology was performed by counters blinded to experimental groups on the stained coverslips using an integrated Axioskop 2 microscope (Carl Zeiss, Thornwood, N.Y.) and Stereoinvestigator image capture equipment and software (MicroBrightField, Williston, Vt.). A contour was drawn around each coverslip to identify the area of interest. A physical disector probe was utilized and counting frames were placed in a systematically random manner at approximately 125 sites per coverslip. The resultant coefficient of error for the stereological counts was used to assess precision (p<0.05)."}, "DAN cells": {"test_system": "DAN cells", "experiment": "MPP+ toxicity in human dopaminergic neuron precursor (DAN) cells, LDH release", "format": "cell-based", "details": "for LDH release (cell death) in MPP+ treated DAN cells: pretreated for two hours prior to MPP+ (1 mM)", "description": "DAN cells, which have been used to study neurodegeneration, can be used in the methods of this invention; they express multiple genes of Tables 4 and/or 5, and the expression of these genes following contact with a candidate compound can be measured. […] DAN cells are sensitive to the neurotoxin MPP^+.\nas §1, §2"}, "[2]": {"test_system": "dopaminergic neurons in the substantia nigra", "experiment": "Progressive 6-OHDA lesioned rats, TH immunohistochemistry of striatum and substantia nigra", "format": "in vivo, rat", "details": "unilateral intrastriatal 6-OHDA, total dose 22.5 μg; up to 28 days", "procedure": "Female Sprague Dawley rats (200-250 g, Charles River, Wilmington, Mass.) receive unilateral intrastriatal stereotaxic injections of 6-OHDA (Sigma, St. Louis, USA) using a 10 μl Hamilton syringe. Intramuscular injections of Acepromazine (3.3 mg/kg, PromAce, Fort Dodge, Iowa) and atropine sulfate (0.2 mg/kg, Phoenix Pharmaceuticals, St. Joseph, Mo.) is given 10 minutes before animals will be anesthetized with ketamine/xylazine (60 mg/kg and 3 mg/kg respectively, i.m.). A concentration of 3.0 μg/μl free base 6-OHDA dissolved in 0.2% ascorbic acid/saline (Sigma) is injected into 3 locations (2.5 μl/site, total dose 22.5 μg) in the right striatum at the following coordinates (calculated from bregma): site 1, AP+1.3, L−2.8, DV−4.5, IB−2.3; site 2, AP+0.2, L−3.0, DV−5.0, IB−2.3; site 3, AP−0.6, L−4.0, DV−5.5, IB−2.3 mm."}}, "note": "“Also recorded” adds a separate entry of the source. Ends that are not written are not given here.", "data": [{"compound": "calcitonin/calcitonin gene-related peptide alpha [CGRP]", "values": [{"measurement": "LDH release (cell death) induced by MPP+ toxicity; neuroprotective effect", "setting": "PC12-αSyn cells", "result": "Significant dose-dependent reductions in LDH release; also recorded: dose-dependent neuroprotective effects"}]}, {"compound": "COC(=O)C[C@H](NC(=O)OC(C)(C)C)C(=O)CF", "note": "[BAF, reference compound]", "values": [{"measurement": "MPP+ susceptibility (LDH release) after pretreatment with neuroprotective agent", "setting": "PC12-αSyn cells; PC12-αSyn cells pretreated", "result": "significantly decreased"}]}, {"compound": "gastrin releasing peptide (VPLPAGGGTVLTKMYPRGNHWAVGHLM; ends and bridges not checked; UniProt P07492 24-50, looked up) [GRP, neuropeptide elevated in A10 dopaminergic neurons]", "values": [{"measurement": "LDH release (cell death) induced by MPP+ toxicity; neuroprotective effect", "setting": "PC12-αSyn cells", "result": "Significant dose-dependent reductions in LDH release; also recorded: dose-dependent neuroprotective effects"}, {"measurement": "protective effect against MPP+ toxicity on GIRK2-positive/TH-positive neurons", "setting": "[1]; primary VM culture", "result": "significant protective effect"}]}, {"compound": "cholecysokinin-8 (DYMGWMDF; ends and bridges not checked; UniProt P06307 96-103, looked up) [CCK-8, neuropeptide elevated in A10 dopaminergic neurons]", "values": [{"measurement": "LDH release (cell death) induced by MPP+ toxicity; neuroprotective effect", "setting": "PC12-αSyn cells", "result": "Significant dose-dependent reductions in LDH release; also recorded: dose-dependent neuroprotective effects"}]}, {"compound": "C[n+]1ccc(-c2ccccc2)cc1", "note": "[MPP^+, 1-methyl-4-phenylpyridinium, reference compound]", "values": [{"measurement": "dose of MPP+ giving maximal toxic insult (LDH release)", "setting": "DAN cells; DAN cells", "result": 2.5, "unit": "mM"}, {"measurement": "LDH release in PC12-αSyn cells compared with naive PC12 cells", "setting": "PC12-αSyn cells; intermediate concentration (2.5 mM) of MPP+", "result": "significantly higher LDH release"}, {"measurement": "vulnerability of TH-positive/GIRK2-positive versus TH-positive/GIRK2-negative cells", "setting": "[1]; primary VM culture, MPP+ 0.1 to 10 μM at day 5 for 48 hours", "result": "more vulnerable"}]}, {"compound": "NCCc1cc(O)c(O)cc1O", "note": "[6-OHDA, 6-hydroxydopamine]", "values": [{"measurement": "loss of dopaminergic fibers in the striatum and neuronal cell bodies in the substantia nigra", "setting": "[2]", "result": "progressive degeneration of dopaminergic neuronal cell bodies"}]}, {"compound": "Vasoactive intestinal peptide (HSDAVFTDNYTRLRKQMAVKKYLNSILN; ends and bridges not checked; UniProt P01282 125-152, looked up) [VIP, neuropeptide elevated in A10 dopaminergic neurons]", "values": [{"measurement": "LDH release (cell death) induced by MPP+ toxicity; neuroprotective effect", "setting": "PC12-αSyn cells", "result": "Significant dose-dependent reductions in LDH release; also recorded: dose-dependent neuroprotective effects"}, {"measurement": "neuroprotective effect in primary VM culture (TH and GIRK2 immunostaining)", "setting": "[1]; 48 hours after 10 μM MPP+, 10^−6 M VIP", "result": "neuroprotective effect"}, {"measurement": "protective effect against MPP+ toxicity on GIRK2-positive/TH-positive neurons", "setting": "[1]; primary VM culture", "result": "significant protective effect"}]}, {"compound": "Fibroblast growth factor 1 [FGF1]", "values": [{"measurement": "LDH release (cell death) induced by MPP+ toxicity; protection by FGF1", "setting": "PC12-αSyn cells; PC12-αSyn cells, FIG. 2D", "result": "significantly reduced; also recorded: able to protect PC12-αSyn cells from MPP^+ in a dose-dependent manner"}]}, {"compound": "NT-3: neurotrophic factor known to have elevated expression in A10 dopaminergic neurons", "values": [{"measurement": "LDH release (cell death) in MPP+ treated DAN cells", "setting": "DAN cells", "result": "significant dose-dependent reduction in LDH release"}, {"measurement": "LDH release (cell death) in MPP+ treated DAN cells", "setting": "DAN cells; listed as NT3", "result": "protective effect"}, {"measurement": "LDH release (cell death) induced by MPP+ toxicity; neuroprotective effect", "setting": "PC12-αSyn cells", "result": "Significant dose-dependent reductions in LDH release; also recorded: able to protect PC12-α-Syn cells from MPP^+ neurotoxicity in a dose-dependent manner"}, {"measurement": "protective effect against MPP+ toxicity on GIRK2-positive/TH-positive neurons", "setting": "[1]; primary VM culture", "result": "significant protective effect"}, {"measurement": "survival of TH and TH/GIRK2 double-labeled neurons against MPP+ toxicity", "setting": "[1]; primary VMDA culture, NT3 at 17 ng/ml, MPP+ 10 μM", "result": "protects the cells against MPP^+ toxicity"}]}]}
